Measured values published in patent US20250345350A1, “TREATING PAIN ASSOCIATED WITH CENTRAL SENSITIZATION” (Medicon Pharmaceuticals, Inc., priority 2022, published 2025).

Tests used:
[1] = tested on: chronic constriction injury-induced peripheral neuropathy in C57BL/6J mice; assay: Thermal allodynia PWL, chronic constriction injury model of PTPN, topical (Example 7); format: in vivo, mouse; conditions: PS 5% topical
[2] = Preliminary in vivo evidence, topical PS hydrogel, PTPN (Example 6)
[3] = Preliminary in vivo evidence, topical PS hydrogel, migraine pain (Example 12)
[4] = PS to outer surface of the eyelid in a subject after LASIK (Example 22); format: in vivo; conditions: topical PS to the outer surface of the eyelid, one subject
[5] = tested on: chronic constriction injury-induced peripheral neuropathy in C57BL/6J mice; assay: PWT (von Frey), PTPN model, oral administration (Examples 9 and 10); conditions: day 6; PS orally three times a day for 6 days at 100 mg/kg
Experimental: Group 1: ligation only (i.e, surgical control with no treatment, n=9) • 2. Group 2: vehicle (n=9) • 3.
Mechanical allodynia was determined using the method of von Frey filaments in line with that performed in the earlier Examples. The PWT test was performed on day 6. The mechanical threshold, expressed as g, indicates the force of the von Frey filament to which the animal reacted.

[6] = tested on: paclitaxel-induced central sensitization in C57/BL mice; assay: Paw withdrawal threshold (von Frey), paclitaxel model, topical PS (Example 1); conditions: day 10, about 30 min after last application; PS 8% hydrogel topically to both hind paws 3 times a day for 10 days
Experimental: The paclitaxel was administered into all study groups once a day for 3 days.
The first doses were administered 2 days after the last administration of paclitaxel.
The study groups were as follows: • 1. Group 1: paclitaxel only (n=9) • 2. Group 2: paclitaxel plus vehicle (n=10) • 3.
In order to determine the outcome of the treatment, pain threshold responses were measured using the well-established method of von Frey filaments. […] The results of the PWT test are expressed as force applied (gm). […] The data is expressed as percent change from the respective baseline value.

[7] = tested on: paclitaxel-induced CIPN in C57BL/6J mice; assay: Thermal allodynia PWL (radiant heat), mouse model of CIPN, oral administration (Example 5); conditions: day 16 of treatment, oral PS 50 mg/kg, sulindac 33 mg/kg
Text: Group 1: paclitaxel plus vehicle (n=8) • 2. […] Group 3: paclitaxel pluse sulindac (n=8)
The animal is placed into a plastic box with an elevated glass floor. The beam of the lamp probe is focused on the paw plantar surface, until the animal withdraws the paw, and sensors in the device shut off the lamp. The thermal allodynia threshold is defined as the latency time until paw withdrawal (PWL) and expressed in seconds (sec) or thermal allodynia threshold.

In the case of `CCOP(=O)(OCC)OCCCCOC(=O)CC1=C(C)/C(=C/c2ccc([S+](C)[O-])cc2)c2ccc(F)cc21` (stereo not shown) [PS, phosphosulindac], the “PWL, sec Mean ± SEM” value [1] is reported as 9.1 ± 2.9 s, the “analgesic effect on neuropathic pain associated with PTPN” value [2] is reported as “striking analgesic effect” and the “analgesic effect on migraine pain” value [3] is reported as “striking analgesic effect”. The “effect on chronic pain after LASIK” value [4] was “dramatically reduced chronic pain”, the “PWT, g Mean ± SEM” value [5] was 1.63 ± 0.38 g and the “PWT, % baseline Mean ± SEM” value [6] was 102.55 ± 4.92 % baseline. The “PWL, sec Mean ± SEM” value [7] was 10.78 ± 1.1 s.
